The text below walks through data of ChEMBL document CHEMBL3259735, “Designing bifunctional NOP receptor-mu opioid receptor ligands from NOP-receptor selective scaffolds. Part II” (Bioorg Med Chem, 2014).

Series [1] concerns Mus musculus. Kind of series: Toxicity in ICR mouse assessed as rewarding effect by measuring increase in time spent in drug-paired compartment at 10 mg/kg, sc administered every 2 days for 6 days measured 24 hrs post last dose by conditioned place preference assay. It is filed as organism-based. Details: dose 10 mg/kg, route subcutaneous. Particulars: in vivo.
Series [2] deals with Mus musculus. The series can be described thus: Toxicity in ICR mouse assessed as increase in global effect at 10 mg/kg, sc administered every 2 days for 6 days measured 24 hrs post last dose during conditioning training. It is filed as organism-based. Details: dose 10 mg/kg, route subcutaneous. The conditions noted are these: in vivo.
For series [3], the system named is Mus musculus. The series can be described thus: Antinociceptive activity in ICR mouse assessed as thermal-stimulus induced tail flick latency at 3 to 10 mg/kg, sc measured up to 4 hrs relative to control. Type of series: functional, organism-based. (In general: Thermal pain tests record how soon the animal reacts.)
Series [4] concerns Mus musculus. The series can be described thus: Toxicity in ICR mouse assessed as effect on global effect at 1 to 10 mg/kg, sc administered every 2 days for 6 days measured 24 hrs post last dose during conditioning training. It is filed as organism-based. Details: dose 1-10 mg/kg, route subcutaneous. The conditions noted are these: in vivo.
Series [5] relates to Mus musculus. Kind of series: Toxicity in ICR mouse assessed as rewarding effect by measuring increase in time spent in drug-paired compartment at 1 to 10 mg/kg, sc administered every 2 days for 6 days measured 24 hrs post last dose by conditioned place preference assay. Type of series: organism-based. Set-up: dose 1-10 mg/kg, route subcutaneous. Particulars: in vivo.

The source made the active and inactive calls. The rule behind the calls is not given here.

Turning to `CN1CC[C@]23c4c5ccc(O)c4O[C@H]2[C@@H](O)C=C[C@H]3[C@H]1C5` [MORPHINE], the Activity result with Mus musculus [1] and in the series on Mus musculus [2] was “Toxic” in each case. In the series on Mus musculus [3], the result was Active.
In the case of `CCC1C(=O)N(C2CCN([C@H]3CC[C@@H]4CCCc5cccc3c54)CC2)c2ccccc21` (mixture of isomers), the Activity result with Mus musculus [4] and in the series with Mus musculus [5] was “Non-toxic” in each case.
